Assay results: patent publication US12077503B2, “Substituted cyclic amides and their use as herbicides” (FMC CORPORATION, priority 2015, dated 2024)

Legend:
Type in all cases: in vivo
Kochia (Kochia scoparia) [1] = test: Test A preemergence; conditions: for Plant response rating, Kochia: 125 g ai/ha, 0 to 100 scale where 0 is no effect and 100 is complete control
Summary of the method: (§1)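 Each rating is a visual injury score from 0 to 100 given about 10 d after treatment, judged against untreated controls kept alongside in the greenhouse. In loam soil–sand blend, seeds got a preemergence directed soil spray, while postemergence plants were 2 to 10 cm tall at spraying.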

[2] = system: barnyardgrass (Echinochloa crus-galli); test: Test A preemergence
Summary of the method: as §1

[3] = system: giant foxtail (Setaria faberii); test: Test A preemergence
Summary of the method: as §1

[4] = system: pigweed (Amaranthus retroflexus); test: Test A preemergence
[5] = system: ragweed (common ragweed, Ambrosia elatior); test: Test A preemergence
Summary of the method: as §1

[6] = system: ryegrass, Italian (Italian ryegrass, Lolium multiflorum); test: Test A preemergence
Summary of the method: as §1

[7] = system: Galium (catchweed bedstraw, Galium aparine); test: Test A postemergence
Summary of the method: as §1

Kochia (Kochia scoparia) [8] = test: Test A postemergence
Summary of the method: as §1

[9] = system: barnyardgrass (Echinochloa crus-galli); test: Test A postemergence
Summary of the method: as §1

[10] = system: blackgrass (Alopecurus myosuroides); test: Test A postemergence
Summary of the method: as §1

corn (Zea mays) = test: Test A postemergence
Summary of the method: as §1

[11] = system: giant foxtail (Setaria faberii); test: Test A postemergence
Summary of the method: as §1

[12] = system: pigweed (Amaranthus retroflexus); test: Test A postemergence
Summary of the method: as §1

[13] = system: ragweed (common ragweed, Ambrosia elatior); test: Test A postemergence
Summary of the method: as §1

[14] = system: ryegrass, Italian (Italian ryegrass, Lolium multiflorum); test: Test A postemergence
Summary of the method: as §1

[15] = system: wheat (Triticum aestivum); test: Test A postemergence
Summary of the method: as §1

[16] = system: barnyardgrass (Echinochloa crus-galli); test: Test B flooded paddy test; conditions: Flood, 0 to 100 scale where 0 is no effect and 100 is complete control, 13 to 15 d
Summary of the method: (§2)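 Visual ratings (0 none to 100 complete control) are relative to untreated plants, taken 13–15 d after treatment in a greenhouse. Test material went straight into floodwater standing 3 cm above the soil, kept constant, on plants at the 2-leaf stage.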

[17] = system: ducksalad (Heteranthera limosa); test: Test B flooded paddy test; conditions: Flood, 0 to 100 scale where 0 is no effect and 100 is complete control, 13 to 15 d
Summary of the method: as §2

rice (Oryra sativa) = test: Test B flooded paddy test; conditions: Flood, 0 to 100 scale where 0 is no effect and 100 is complete control, 13 to 15 d
Summary of the method: as §2

[18] = system: sedge, umbrella (small-flower umbrella sedge, Cyperus difformis); test: Test B flooded paddy test; conditions: Flood, 0 to 100 scale where 0 is no effect and 100 is complete control, 13 to 15 d
Summary of the method: as §2

[19] = Preemergence, 500 g ai/ha, visual injury approx. 10 d
[20] = 125 g ai/ha, Preemergence, visual injury after approximately 10 d, 0 to 100 scale where 0 is no effect and 100 is complete control
[21] = 125 g ai/ha, postemergence, visual injury rating on 0 to 100 scale (0 no effect, 100 complete control), approx. 10 d
[22] = Postemergence, 500 g ai/ha, 0 to 100 scale where 0 is no effect and 100 is complete control
[23] = 125 g ai/ha, preemergence, visual rating after approx. 10 d, 0 to 100 scale where 0 is no effect and 100 is complete control
[24] = 500 g ai/ha, preemergence, 0 to 100 scale, 0 = no effect, 100 = complete control
[25] = 125 g ai/ha, postemergence, visual injury after approximately 10 d, 0 to 100 scale (0 no effect, 100 complete control)
[26] = 500 g ai/ha, postemergence, visual injury, 0 to 100 scale (0 no effect, 100 complete control), approx. 10 d

In the case of O=C1NCC(c2c(F)cccc2F)C1C(=O)Nc1ccccc1F (racemic) [Compound 515], the “Plant response rating, Kochia” value (Kochia (Kochia scoparia) [1]; Preemergence, visual injury after approximately 10 d) was 0, the “Kochia plant response rating (0 to 100 scale, 0 is no effect, 100 is complete control)” value (Kochia (Kochia scoparia) [1]; [19]) was 0 and the “Plant response rating, Barnyardgrass” value [2, 20] was 0. For the same compound, the “Barnyardgrass plant response rating (0 to 100 scale, 0 is no effect, 100 is complete control)” value [2, 19] was 0, the “Plant response rating, Foxtail, Giant” value [3, 20] was 0 and the “Foxtail, Giant plant response rating (0 to 100 scale, 0 is no effect, 100 is complete control)” value [3, 19] was 70. The “Plant response rating, Pigweed” value [4, 20] was 0, the “Pigweed plant response rating (0 to 100 scale, 0 is no effect, 100 is complete control)” value [4, 19] was 0 and the “Plant response rating, Ragweed” value [5, 20] was 0. For the same compound, the “Ragweed plant response rating (0 to 100 scale, 0 is no effect, 100 is complete control)” value [5, 19] was 0, the “Plant response rating, Ryegrass, Italian” value [6, 20] was 0 and the “Ryegrass, Italian plant response rating (0 to 100 scale, 0 is no effect, 100 is complete control)” value [6, 19] was 0. The “Galium plant response rating” value [7, 21] was 0, the “Plant response rating, Galium” value [7, 22] was 0 and the “Kochia plant response rating” value (Kochia (Kochia scoparia) [8]; [21]) was 0. For the same compound, the “Plant response rating, Kochia” value (Kochia (Kochia scoparia) [8]; [22]) was 0, the “Barnyardgrass plant response rating” value [9, 21] was 0 and the “Plant response rating, Barnyardgrass” value [9, 22] was 20. The “Blackgrass plant response rating” value [10, 21] was 0, the “Plant response rating, Blackgrass” value [10, 22] was 0 and the “Corn plant response rating” value (corn (Zea mays); [21]) was 0. The “Plant response rating, Corn” value (corn (Zea mays); [22]) was 0, the “Foxtail, Giant plant response rating” value [11, 21] was 0 and the “Plant response rating, Foxtail, Giant” value [11, 22] was 0. The “Pigweed plant response rating” value [12, 21] was 0, the “Plant response rating, Pigweed” value [12, 22] was 0 and the “Ragweed plant response rating” value [13, 21] was 0. For the same compound, the “Plant response rating, Ragweed” value [13, 22] was 0, the “Ryegrass, Italian plant response rating” value [14, 21] was 0 and the “Plant response rating, Ryegrass, Italian” value [14, 22] was 0. For the same compound, the “Wheat plant response rating” value [15, 21] was 0, the “Plant response rating, Wheat” value [15, 22] was 0 and the “Plant response rating, Barnyardgrass” value ([16]; 250 g ai/ha) was 0. The “Plant response rating, Ducksalad” value ([17]; 250 g ai/ha) was 0, the “Plant response rating, Rice” value (rice (Oryra sativa); 250 g ai/ha) was 0 and the “Plant response rating, Sedge, Umbrella” value ([18]; 250 g ai/ha) was 0.

O=C1NCC(c2ccc(I)cc2)C1C(=O)Nc1cccc(F)c1 (racemic) [Compound 703] was tested, and the “Plant response rating, Kochia” value (Kochia (Kochia scoparia) [1]; preemergence, visual rating after approx. 10 d) was 0, the “Plant response rating, Barnyardgrass” value [2, 23] was 20 and the “Plant response rating, Barnyardgrass” value [2, 24] was 80. For the same compound, the “Plant response rating, Foxtail, Giant” value [3, 23] was 80, the “Plant response rating, Foxtail, Giant” value [3, 24] was 90 and the “Plant response rating, Pigweed” value [4, 23] was 0. The “Plant response rating, Pigweed” value [4, 24] was 0, the “Plant response rating, Ragweed” value [5, 23] was 0 and the “Plant response rating, Ragweed” value [5, 24] was 0. For the same compound, the “Plant response rating, Ryegrass, Italian” value [6, 23] was 0, the “Plant response rating, Ryegrass, Italian” value [6, 24] was 0 and the “Plant response rating, Galium” value [7, 25] was 0. The “Plant response rating, Galium” value [7, 26] was 0, the “Plant response rating, Kochia” value (Kochia (Kochia scoparia) [8]; [25]) was 0 and the “Plant response rating, Kochia” value (Kochia (Kochia scoparia) [8]; [26]) was 0. For the same compound, the “Plant response rating, Barnyardgrass” value [9, 25] was 60, the “Plant response rating, Barnyardgrass” value [9, 26] was 70 and the “Plant response rating, Blackgrass” value [10, 25] was 0. For the same compound, the “Plant response rating, Blackgrass” value [10, 26] was 0, the “Plant response rating, Corn” value (corn (Zea mays); [25]) was 0 and the “Plant response rating, Corn” value (corn (Zea mays); [26]) was 0. For the same compound, the “Plant response rating, Foxtail, Giant” value [11, 25] was 50, the “Plant response rating, Foxtail, Giant” value [11, 26] was 90 and the “Plant response rating, Pigweed” value [12, 25] was 0. For the same compound, the “Plant response rating, Pigweed” value [12, 26] was 0, the “Plant response rating, Ragweed” value [13, 25] was 0 and the “Plant response rating, Ragweed” value [13, 26] was 0. The “Plant response rating, Ryegrass, Italian” value [14, 25] was 0, the “Plant response rating, Ryegrass, Italian” value [14, 26] was 0 and the “Plant response rating, Wheat” value [15, 25] was 0. For the same compound, the “Plant response rating, Wheat” value [15, 26] was 0, the “Plant response rating, Barnyardgrass” value ([16]; 500 g ai/ha) was 30 and the “Plant response rating, Ducksalad” value ([17]; 500 g ai/ha) was 98. The “Plant response rating, Rice” value (rice (Oryra sativa); 500 g ai/ha) was 0 and the “Plant response rating, Sedge, Umbrella” value ([18]; 500 g ai/ha) was 0.
